Measured values: patent publication US9051273B2, “Phosphodiesterase 4 inhibitor capable of avoiding vomiting” (priority 2012, dated 2015)

What was measured:
[1] = molecular target: PDE4D4 (Homo sapiens, UniProt Q08499); assay: Phosphodiesterase 4 inhibitory activity test (IMAP fluorescence polarization), PDE4D4; type: biochemical; conditions: Table 1
Source text: (§1) Phosphodiesterase 4 inhibitory activity test utilizes IMAP technology, which is called immobilized metal ion affinity-based fluorescence polarization and provide a stable and accurate approach for determining the inhibitory potential of compounds.

[2] = molecular target: PDE4D5 (Homo sapiens, UniProt Q08499); assay: Phosphodiesterase 4 inhibitory activity test (IMAP fluorescence polarization), PDE4D5; type: biochemical; conditions: Table 1
Source text: as §1

[3] = tested on: beagle dogs; assay: Potential vomiting effects (emesis) in beagle dogs; type: in vivo; conditions: observation 120 minutes
Protocol: 2. Preliminary assessing the potential vomiting effects of new PDE4 inhibitor III-3
The potential vomiting observation time is 120 minutes after the oral administration. The latency was determined by the interval time from the oral administration of the drugs to the nausea, retching, a lot of salivation and vomiting of gastric contents. The incidence of emesis was also recorded.

[4] = tested on: mice with scopolamine-induced cognitive deficits; assay: Morris water maze, learning and memory with scopolamine-induced cognitive deficits in mice; type: in vivo, kunming mice; conditions: administered 1 week, space exploration on fifth day, X ± S
Protocol: 1. The effects of the new PDE4 inhibitor III-3 on the learning and memory with scopolamine-induced cognitive deficits in mice
After being continuously administered with veh or compounds for 1 week, the behavioral tests are determined by Morris water maze. 20 minutes before test, saline is given into the blank control mice through intraperitoneal injection, while scopolamine is intraperitoneally injected to the other five groups. These mice are continuously trained for 4 days, and the space exploration experiment is performed on the fifth day for recording the latency to target quadrant, the number of crossing and retention time in the target quadrant during the test period of each mice.

[5] = scopolamine + Rolipram 0.5 mg/kg

PDE4D4, sequence (Q08499 whole entry): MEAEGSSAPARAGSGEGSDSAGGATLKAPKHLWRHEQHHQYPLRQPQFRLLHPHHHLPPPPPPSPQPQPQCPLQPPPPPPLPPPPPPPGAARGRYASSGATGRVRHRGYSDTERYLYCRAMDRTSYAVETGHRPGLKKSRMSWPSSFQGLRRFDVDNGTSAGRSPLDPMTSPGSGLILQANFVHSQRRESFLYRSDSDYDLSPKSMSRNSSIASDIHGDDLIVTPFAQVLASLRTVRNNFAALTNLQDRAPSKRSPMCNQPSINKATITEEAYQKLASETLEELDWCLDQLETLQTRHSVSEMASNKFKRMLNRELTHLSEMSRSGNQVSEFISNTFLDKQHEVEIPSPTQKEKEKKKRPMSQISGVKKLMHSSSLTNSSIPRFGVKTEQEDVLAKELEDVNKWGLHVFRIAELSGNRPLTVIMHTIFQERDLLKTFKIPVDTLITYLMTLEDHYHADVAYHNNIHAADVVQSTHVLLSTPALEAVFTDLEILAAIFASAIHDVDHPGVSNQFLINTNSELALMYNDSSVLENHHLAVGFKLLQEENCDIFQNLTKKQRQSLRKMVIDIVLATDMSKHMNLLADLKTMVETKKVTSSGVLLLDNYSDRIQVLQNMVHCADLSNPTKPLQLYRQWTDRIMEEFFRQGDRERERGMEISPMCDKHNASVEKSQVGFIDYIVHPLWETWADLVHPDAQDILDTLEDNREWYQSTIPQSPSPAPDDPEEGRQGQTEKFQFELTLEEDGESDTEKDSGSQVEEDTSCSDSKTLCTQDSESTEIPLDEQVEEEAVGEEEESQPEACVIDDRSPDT
PDE4D5, sequence (Q08499 1-745 isoform Q08499-6): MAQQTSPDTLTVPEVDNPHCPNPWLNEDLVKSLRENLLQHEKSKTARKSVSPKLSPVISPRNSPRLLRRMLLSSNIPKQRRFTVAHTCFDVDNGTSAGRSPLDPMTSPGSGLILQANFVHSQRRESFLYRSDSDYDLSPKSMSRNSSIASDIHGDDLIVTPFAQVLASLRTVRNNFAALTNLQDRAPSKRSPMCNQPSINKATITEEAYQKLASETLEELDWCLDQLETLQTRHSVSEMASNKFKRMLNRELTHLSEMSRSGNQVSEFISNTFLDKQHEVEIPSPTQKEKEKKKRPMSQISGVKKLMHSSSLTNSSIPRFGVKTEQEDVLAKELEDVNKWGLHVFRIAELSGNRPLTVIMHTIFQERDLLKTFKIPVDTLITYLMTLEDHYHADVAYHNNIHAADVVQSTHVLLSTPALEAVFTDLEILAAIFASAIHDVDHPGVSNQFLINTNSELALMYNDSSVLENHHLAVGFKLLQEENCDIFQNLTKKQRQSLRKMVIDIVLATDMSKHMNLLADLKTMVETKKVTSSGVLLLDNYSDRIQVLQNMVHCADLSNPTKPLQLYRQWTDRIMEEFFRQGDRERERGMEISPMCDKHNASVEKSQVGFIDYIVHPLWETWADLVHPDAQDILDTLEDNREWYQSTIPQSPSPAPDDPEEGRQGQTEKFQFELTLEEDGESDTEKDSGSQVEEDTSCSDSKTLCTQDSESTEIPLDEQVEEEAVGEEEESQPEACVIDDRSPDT

SMILES | IC50 [1] | IC50 [2] | further results
COc1ccc(Cn2ncc(Cl)c(Cl)c2=O)cc1-c1cccc(Cl)c1 [III-1] | 22.4 µM | 8.32 µM | 
COc1ccccc1OCCNc1ccc(=O)n(Cc2ccc(OC)c(-c3cccc(Cl)c3)c2)n1 [III-3] | 7.82 µM | 8.48 µM | Incidence of emesis ([3]; 1.0 mg/kg oral): 0/3; Latency period (min) of emesis ([3]; 1.0 mg/kg oral): >120 min; Latency to target quadrant (t/s) ([4]; scopolamine + III-3 0.2 mg/kg): 9.96 ± 2.32 s; Retention time in target quadrant time (t/s) ([4]; scopolamine + III-3 0.2 mg/kg): 42.78 ± 4.56 s; The number of crossing target quadrant ([4]; scopolamine + III-3 0.2 mg/kg): 6.67 ± 1.29
COc1ccc(C2CNC(=O)C2)cc1OC1CCCC1 (centres unmarked) [Rolipram, reference compound] |  |  | Incidence of emesis ([3]; 0.5 mg/kg oral gavage): 6/6; Latency period (min) of emesis ([3]; 0.5 mg/kg oral gavage): 10.67 ± 2.68 min; Latency to target quadrant (t/s) [4, 5]: 16.09 ± 3.29 s; Retention time in target quadrant time (t/s) [4, 5]: 38.34 ± 3.65 s; The number of crossing target quadrant [4, 5]: 6.89 ± 0.59

Continued, in another order:

IC50 [1] | IC50 [2] | SMILES | further results
115 µM | 83.7 µM | COc1ccc(CN2CCN(c3ccccc3OC)CC2)cc1-c1cccc(Cl)c1 [II-1] | 
141 µM | 50.9 µM | COc1ccc(CN2CCN(c3ccccc3Cl)CC2)cc1-c1cccc(Cl)c1 [II-2] | 
137 µM | 110 µM | COc1ccc(Cn2nc(N3CCN(c4ccccc4Cl)CC3)ccc2=O)cc1-c1cccc(Cl)c1 [III-2] | 
